How the values were obtained:
KRAS G12D [1] = biological target: T1, KRAS G12D (Homo sapiens (Human), UniProt P01116, G12D); experiment: KRAS G12D RAF Disruption Assay (HTRF); assay type: biochemical; settings: recombinant GMPPNP-loaded KRAS G12D (5 nM), GST-RAF1 RBD (9 nM), HTRF signal
Experimental: Recombinant GMPPNP-loaded KRAS G12D (5 nM) was treated with compound at room temperature for 20 minutes in assay buffer (50 mM Tris pH 7.5, 100 mM NaCl, 1 mM MgCl2, 1 mM DTT, 100 ug/mL BSA).

KRAS G12D [2] = biological target: T1, KRAS G12D; experiment: KRAS G12D Nucleotide Exchange Assay (HTRF); assay type: biochemical; settings: recombinant GDP-loaded KRAS G12D (20 nM), BIODIPY-labeled GDP (400 nM), recombinant SOS (10 nM), HTRF signal
Experimental: Recombinant GDP-loaded KRAS G12D (20 nM) was treated with compound at room temperature for 20 minutes in assay buffer (10 mM Hepes pH 7.4, 150 mM NaCl, 5 mM MgCl2, 0.0025% Igepal-CA630, 0.05% BSA, 1 mM DTT, 0.5 nM SA-Tb). BIODIPY-labeled GDP (400 nM) and recombinant SOS (10 nM) were added, and the reaction was incubated for 30 minutes.

T1 sequence (P01116-2 other isoform, or with tags, fused parts or gaps G12D): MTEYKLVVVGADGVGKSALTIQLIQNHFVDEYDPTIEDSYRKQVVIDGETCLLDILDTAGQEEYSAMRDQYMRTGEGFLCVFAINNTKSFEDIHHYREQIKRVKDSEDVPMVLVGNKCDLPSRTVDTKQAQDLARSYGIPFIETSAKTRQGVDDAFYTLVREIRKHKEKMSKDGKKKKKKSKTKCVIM

Compound	KRASG12D RAF Disruption Assay (IC50, µM) (KRAS G12D [1])	KRASG12D Nucleotide Exchange Assay (IC50, µM) (KRAS G12D [2])
CN1CCC[C@H]1COc1nc(N2CC[C@H]3CC[C@@H](C2)N3)c2cc(Cl)c(-c3cc(O)cc4ccccc34)c(F)c2n1 [Example 6, 4-{6-chloro-4-[(1S,6R)-3,9-diazabicyclo[4.2.1]nonan-3-yl]-8-fluoro-2-{[(2S)-1-methylpyrrolidin-2-yl]methoxy}quinazolin-7-yl}naphthalen-2-ol]	3.68 µM	0.01 µM
CN1CCC[C@@]2(COc3nc(N4CC[C@H]5CC[C@@H](C4)N5)c4ccc(-c5cc(O)cc6ccccc56)c(F)c4n3)CCC[C@@H]12 [Example 9-1, 4-(2-{[(4aS,7aR)-1-methyl-octahydro-1H-cyclopenta[b]pyridin-4a-yl]methoxy}-4-[(1S,6R)-3,9-diazabicyclo[4.2.1]nonan-3-yl]-8-fluoroquinazolin-7-yl)naphthalen-2-ol]	5.1 µM	0.04 µM
CN1CCC[C@@]2(COc3nc(N4CC[C@H]5CC[C@@H](C4)N5)c4ccc(-c5cc(O)cc6cccc(F)c56)c(F)c4n3)CCC[C@@H]12 [Example 9-2, 4-(2-{[(4aS,7aR)-1-methyl-octahydro-1H-cyclopenta[b]pyridin-4a-yl]methoxy}-4-[(1S,6R)-3,9-diazabicyclo[4.2.1]nonan-3-yl]-8-fluoroquinazolin-7-yl)-5-fluoronaphthalen-2-ol]	2.0 µM	0.03 µM
CCc1cccc2cc(O)cc(-c3ccc4c(N5CC[C@H]6CC[C@@H](C5)N6)nc(OC[C@]56CCC[C@H]5N(C)CCC6)nc4c3F)c12 [Example 9-3, 4-(2-{[(4aS,7aR)-1-methyl-octahydro-1H-cyclopenta[b]pyridin-4a-yl]methoxy}-4-[(1S,6R)-3,9-diazabicyclo[4.2.1]nonan-3-yl]-8-fluoroquinazolin-7-yl)-5-ethylnaphthalen-2-ol]	3.0 µM	0.05 µM
C#Cc1c(F)ccc2cc(O)cc(-c3ccc4c(N5CC[C@H]6CC[C@@H](C5)N6)nc(OC[C@]56CCC[C@H]5N(C)CCC6)nc4c3F)c12 [Example 9-4, 4-(2-{[(4aS,7aR)-1-methyl-octahydro-1H-cyclopenta[b]pyridin-4a-yl]methoxy}-4-[(1S,6R)-3,9-diazabicyclo[4.2.1]nonan-3-yl]-8-fluoroquinazolin-7-yl)-5-ethynyl-6-fluoronaphthalen-2-ol]	0.2 µM	0.02 µM
C#Cc1c(F)ccc2cc(O)cc(-c3ccc4c(N5CC[C@H]6CC[C@@H](C5)N6)nc(OCC5(CN(C)C)CC5)nc4c3F)c12 [Example 11-1, 4-{4-[(1S,6R)-3,9-diazabicyclo[4.2.1]nonan-3-yl]-2-({1-[(dimethylamino)methyl]cyclopropyl}methoxy)-8-fluoroquinazolin-7-yl}-5-ethynyl-6-fluoronaphthalen-2-ol]	2.7 µM	0.06 µM
Oc1cc(-c2ccc3c(N4CC[C@H]5CC[C@@H](C4)N5)nc(OC[C@@]45CCCN4C[C@H](F)C5)nc3c2F)c2c(F)cccc2c1 [Example 11-2, 4-(2-{[(2R,7aS)-2-fluoro-hexahydro-1H-pyrrolizin-7a-yl]methoxy}-4-[(1S,6R)-3,9-diazabicyclo[4.2.1]nonan-3-yl]-8-fluoroquinazolin-7-yl)-5-fluoronaphthalen-2-ol]	1.0 µM	0.01 µM
Nc1cc2cccc(F)c2c(-c2ccc3c(N4CC[C@H]5CC[C@@H](C4)N5)nc(OC[C@@]45CCCN4C[C@H](F)C5)nc3c2F)n1 [Example 11-4, 1-(2-{[(2R,7aS)-2-fluoro-hexahydro-1H-pyrrolizin-7a-yl]methoxy}-4-[(1S,6R)-3,9-diazabicyclo[4.2.1]nonan-3-yl]-8-fluoroquinazolin-7-yl)-8-fluoroisoquinolin-3-amine]	43.1 µM	2.2 µM

Continued, values first:

KRASG12D RAF Disruption Assay (IC50, µM) (KRAS G12D [1])	KRASG12D Nucleotide Exchange Assay (IC50, µM) (KRAS G12D [2])	Compound
0.48 µM	<0.002 µM	Oc1cc(-c2c(Cl)cc3c(N4CC[C@H]5CC[C@@H](C4)N5)nc(OC[C@]45CCCN4C[C@H](F)C5)nc3c2F)c2ccccc2c1 [Example 7, 4-(2-{[(2R,7aR)-2-fluoro-hexahydro-1H-pyrrolizin-7a-yl]methoxy}-6-chloro-4-[(1S,6R)-3,9-diazabicyclo[4.2.1]nonan-3-yl]-8-fluoroquinazolin-7-yl)naphthalen-2-ol]
1.0 µM	0.007 µM	Cc1cc(N)nc(-c2c(Cl)cc3c(N4CC[C@H]5CC[C@@H](C4)N5)nc(OCC4(CN(C)C)CC4)nc3c2F)c1C(F)(F)F [Example 10-1, 6-{6-chloro-4-[(1S,6R)-3,9-diazabicyclo[4.2.1]nonan-3-yl]-2-({1-[(dimethylamino)methyl]cyclopropyl}methoxy)-8-fluoroquinazolin-7-yl}-4-methyl-5-(trifluoromethyl)pyridin-2-amine]
1.0 µM	0.006 µM	Cc1cc(N)nc(-c2c(Cl)cc3c(N4CC[C@H]5CC[C@@H](C4)N5)nc(OCC4(CN5C6CCC5COC6)CC4)nc3c2F)c1C(F)(F)F [Example 10-2, 6-{6-chloro-4-[(1S,6R)-3,9-diazabicyclo[4.2.1]nonan-3-yl]-8-fluoro-2-{[1-({3-oxa-8-azabicyclo[3.2.1]octan-8-yl}methyl)cyclopropyl]methoxy}quinazolin-7-yl}-4-methyl-5-(trifluoromethyl)pyridin-2-amine]
2.7 µM	0.01 µM	Cc1cc(N)nc(-c2c(Cl)cc3c(N4CC[C@H]5CC[C@@H](C4)N5)nc(OCC4(CN5CCCC(F)C5)CC4)nc3c2F)c1C(F)(F)F (stereo partly drawn) [Example 10-3, 6-{6-chloro-4-[(1S,6R)-3,9-diazabicyclo[4.2.1]nonan-3-yl]-8-fluoro-2-({1-[(3-fluoropiperidin-1-yl)methyl]cyclopropyl}methoxy)quinazolin-7-yl}-4-methyl-5-(trifluoromethyl)pyridin-2-amine]
41.5 µM	0.11 µM	Cc1cc(N)nc(-c2c(Cl)cc3c(N4CC[C@H]5CC[C@@H](C4)N5)nc(OCC4(CN5CC[C@@H](F)C5)CC4)nc3c2F)c1C(F)(F)F [Example 10-4, 6-{6-chloro-4-[(1S,6R)-3,9-diazabicyclo[4.2.1]nonan-3-yl]-8-fluoro-2-[(1-{[(3R)-3-fluoropyrrolidin-1-yl]methyl}cyclopropyl)methoxy]quinazolin-7-yl}-4-methyl-5-(trifluoromethyl)pyridin-2-amine]
12.1 µM	0.06 µM	Cc1cc(N)nc(-c2c(Cl)cc3c(N4CC[C@H]5CC[C@@H](C4)N5)nc(OCC4(CN5CCOCC5)CC4)nc3c2F)c1C(F)(F)F [Example 10-7, 6-{6-chloro-4-[(1S,6R)-3,9-diazabicyclo[4.2.1]nonan-3-yl]-8-fluoro-2-({1-[(morpholin-4-yl)methyl]cyclopropyl}methoxy)quinazolin-7-yl}-4-methyl-5-(trifluoromethyl)pyridin-2-amine]
2.6 µM	0.02 µM	Cc1cc(N)nc(-c2c(Cl)cc3c(N4CC[C@H]5CC[C@@H](C4)N5)nc(OCC4(CN5CCCCC5)CC4)nc3c2F)c1C(F)(F)F [Example 10-8, 6-{6-chloro-4-[(1S,6R)-3,9-diazabicyclo[4.2.1]nonan-3-yl]-8-fluoro-2-({1-[(piperidin-1-yl)methyl]cyclopropyl}methoxy)quinazolin-7-yl}-4-methyl-5-(trifluoromethyl)pyridin-2-amine]
51.0 µM	0.41 µM	Cc1cc(N)nc(-c2c(Cl)cc3c(N4CC[C@H]5CC[C@@H](C4)N5)nc(OCC4(CN5CCCC(F)C5)CC4)nc3c2F)c1C(F)(F)F (stereo partly drawn) [Example 10-9, 6-{6-chloro-4-[(1S,6R)-3,9-diazabicyclo[4.2.1]nonan-3-yl]-8-fluoro-2-({1-[(3-fluoropiperidin-1-yl)methyl]cyclopropyl}methoxy)quinazolin-7-yl}-4-methyl-5-(trifluoromethyl)pyridin-2-amine]
2.4 µM	0.02 µM	Cc1cc(N)nc(-c2c(Cl)cc3c(N4CC[C@H]5CC[C@@H](C4)N5)nc(OCC4(CN5CCCC(F)C5)CC4)nc3c2F)c1C(F)(F)F (stereo partly drawn) [Example 10-10, 6-{6-chloro-4-[(1S,6R)-3,9-diazabicyclo[4.2.1]nonan-3-yl]-8-fluoro-2-({1-[(3-fluoropiperidin-1-yl)methyl]cyclopropyl}methoxy)quinazolin-7-yl}-4-methyl-5-(trifluoromethyl)pyridin-2-amine]

From patent publication US20240217982A1, “KRAS INHIBITORS” (Bristol-Myers Squibb Company, priority 2021, published 2024)
